How the values were obtained:
late watergrass = experiment: Test Example 1: herbicidal activity, application before weed generation under submerged conditions (Table 16, symbol A); format: in vivo, late watergrass (Echinochloa oryzicola); details: 320 g/ha applied herbicide
Procedure, shortened: (§1)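 Submerged Wagner pots (alluvial soil, 4 cm water) sown with weed seeds and planted with 2.5-leaf rice seedlings; emulsifiable concentrate diluted in water applied to water surface on sowing day. Held in greenhouse at 25-30 °C; injury scored 0-5 by herbicidal rate after three weeks.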

Chinese sprangletop = experiment: Test Example 3: herbicidal effect by foliage application, Wagner pot (Table 18, symbol D); format: in vivo, chinese sprangletop (Leptochloa chinensis); details: 320 g/ha
Procedure, shortened: (§2)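 Plants were sown in alluvial soil held under 0.1–0.5 cm standing water and grown 14 days in a greenhouse at 25–30 °C. An emulsifiable formulation, water-diluted to the set dose, was then sprayed onto the foliage, and effects were scored three weeks later using previously defined criteria.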

chickweed [1] = experiment: Test Example 4: herbicidal effect by soil treatment (Table 19, symbol P); format: in vivo, common chickweed (Stellaria media); details: amount of applied herbicide 320 g/ha
Procedure, shortened: (§3)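 Soil-surface application: an emulsion agent diluted with water to the predetermined dose is sprayed uniformly over seeds lying under roughly 1.5 cm of sterilized diluvial soil. Boxes stay in a greenhouse at 25° C. to 30° C. Three weeks later, each species is graded on previously defined criteria.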

southern crabgrass [2] = experiment: Test Example 5: herbicidal effect by foliage application, plastic box (Table 20, symbol F); format: in vivo, southern crabgrass (Digitaria ciliaris); details: foliage application, 320 g/ha, three weeks after application
Procedure, shortened: (§4)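 Sow seeds spot-wise in sterilized diluvial soil; cover with ~1.5 cm soil. Grow 14 days in greenhouse, 25° C. to 30° C. Spray foliage with emulsion diluted to predetermined amount. Rate effect after 3 weeks.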

southern crabgrass [3] = experiment: Test Example 4: herbicidal effect by soil treatment (Table 19, symbol F); format: in vivo, southern crabgrass (Digitaria ciliaris); details: amount of applied herbicide 320 g/ha
Procedure, shortened: as §3

windgrass [4] = experiment: Test Example 5: herbicidal effect by foliage application, plastic box (Table 20, symbol L); format: in vivo, windgrass (Apera spica-venti); details: foliage application, 320 g/ha, three weeks after application
Procedure, shortened: as §4

Japanese bulrush = experiment: Test Example 1: herbicidal activity, application before weed generation under submerged conditions (Table 16, symbol B); format: in vivo, Japanese bulrush (Schoenoplectus juncoides); details: 320 g/ha applied herbicide
Procedure, shortened: as §1

false cleavers [5] = experiment: Test Example 4: herbicidal effect by soil treatment (Table 19, symbol Q); format: in vivo, false cleavers (Galium spurium); details: amount of applied herbicide 320 g/ha
Procedure, shortened: as §3

Italian ryegrass [6] = experiment: Test Example 5: herbicidal effect by foliage application, plastic box (Table 20, symbol K); format: in vivo, Italian ryegrass (Lolium multiflorum); details: foliage application, 320 g/ha, three weeks after application
Procedure, shortened: as §4

persian speedwell [7] = experiment: Test Example 5: herbicidal effect by foliage application, plastic box (Table 20, symbol R); format: in vivo, Persian speedwell (Veronica persica); details: foliage application, 320 g/ha, three weeks after application
Procedure, shortened: as §4

false cleavers [8] = experiment: Test Example 5: herbicidal effect by foliage application, plastic box (Table 20, symbol Q); format: in vivo, false cleavers (Galium spurium); details: foliage application, 320 g/ha, three weeks after application
Procedure, shortened: as §4

lambsquarters [9] = experiment: Test Example 5: herbicidal effect by foliage application, plastic box (Table 20, symbol O); format: in vivo, lambsquarters (Chenopodium album); details: foliage application, 320 g/ha, three weeks after application
Procedure, shortened: as §4

barnyard grass [10] = experiment: Test Example 3: herbicidal effect by foliage application, Wagner pot (Table 18, symbol H); format: in vivo, barnyard grass (Echinochloa crus-galli); details: 320 g/ha
Procedure, shortened: as §2

velvetleaf [11] = experiment: Test Example 5: herbicidal effect by foliage application, plastic box (Table 20, symbol M); format: in vivo, velvetleaf (Abutilon theophrasti); details: foliage application, 320 g/ha, three weeks after application
Procedure, shortened: as §4

velvetleaf [12] = experiment: Test Example 4: herbicidal effect by soil treatment (Table 19, symbol M); format: in vivo, velvetleaf (Abutilon theophrasti); details: amount of applied herbicide 320 g/ha
Procedure, shortened: as §3

persian speedwell [13] = experiment: Test Example 4: herbicidal effect by soil treatment (Table 19, symbol R); format: in vivo, Persian speedwell (Veronica persica); details: amount of applied herbicide 320 g/ha
Procedure, shortened: as §3

barnyard grass [14] = experiment: Test Example 4: herbicidal effect by soil treatment (Table 19, symbol H); format: in vivo, barnyard grass (Echinochloa crus-galli); details: amount of applied herbicide 320 g/ha
Procedure, shortened: as §3

blackgrass [15] = experiment: Test Example 4: herbicidal effect by soil treatment (Table 19, symbol J); format: in vivo, blackgrass (Alopecurus myosuroides); details: amount of applied herbicide 320 g/ha
Procedure, shortened: as §3

green foxtail [16] = experiment: Test Example 4: herbicidal effect by soil treatment (Table 19, symbol G); format: in vivo, green foxtail (Setaria viridis); details: amount of applied herbicide 320 g/ha
Procedure, shortened: as §3

lambsquarters [17] = experiment: Test Example 4: herbicidal effect by soil treatment (Table 19, symbol O); format: in vivo, lambsquarters (Chenopodium album); details: amount of applied herbicide 320 g/ha
Procedure, shortened: as §3

redroot pigweed [18] = experiment: Test Example 5: herbicidal effect by foliage application, plastic box (Table 20, symbol N); format: in vivo, redroot pigweed (Amaranthus retroflexus); details: foliage application, 320 g/ha, three weeks after application
Procedure, shortened: as §4

Italian ryegrass [19] = experiment: Test Example 4: herbicidal effect by soil treatment (Table 19, symbol K); format: in vivo, Italian ryegrass (Lolium multiflorum); details: amount of applied herbicide 320 g/ha
Procedure, shortened: as §3

windgrass [20] = experiment: Test Example 4: herbicidal effect by soil treatment (Table 19, symbol L); format: in vivo, windgrass (Apera spica-venti); details: amount of applied herbicide 320 g/ha
Procedure, shortened: as §3

chickweed [21] = experiment: Test Example 5: herbicidal effect by foliage application, plastic box (Table 20, symbol P); format: in vivo, common chickweed (Stellaria media); details: foliage application, 320 g/ha, three weeks after application
Procedure, shortened: as §4

green foxtail [22] = experiment: Test Example 5: herbicidal effect by foliage application, plastic box (Table 20, symbol G); format: in vivo, green foxtail (Setaria viridis); details: foliage application, 320 g/ha, three weeks after application
Procedure, shortened: as §4

barnyard grass [23] = experiment: Test Example 5: herbicidal effect by foliage application, plastic box (Table 20, symbol H); format: in vivo, barnyard grass (Echinochloa crus-galli); details: foliage application, 320 g/ha, three weeks after application
Procedure, shortened: as §4

blackgrass [24] = experiment: Test Example 5: herbicidal effect by foliage application, plastic box (Table 20, symbol J); format: in vivo, blackgrass (Alopecurus myosuroides); details: foliage application, 320 g/ha, three weeks after application
Procedure, shortened: as §4

rice flat sedge = experiment: Test Example 3: herbicidal effect by foliage application, Wagner pot (Table 18, symbol E); format: in vivo, rice flat sedge (Cyperus iria); details: 320 g/ha
Procedure, shortened: as §2

wild oat [25] = experiment: Test Example 4: herbicidal effect by soil treatment (Table 19, symbol I); format: in vivo, wild oat (Avena fatua); details: amount of applied herbicide 320 g/ha
Procedure, shortened: as §3

wild oat [26] = experiment: Test Example 5: herbicidal effect by foliage application, plastic box (Table 20, symbol I); format: in vivo, wild oat (Avena fatua); details: foliage application, 320 g/ha, three weeks after application
Procedure, shortened: as §4

oval-leafed pondweed = experiment: Test Example 1: herbicidal activity, application before weed generation under submerged conditions (Table 16, symbol C); format: in vivo, oval-leafed pondweed (Monochoria vaginalis); details: 320 g/ha applied herbicide
Procedure, shortened: as §1

redroot pigweed [27] = experiment: Test Example 4: herbicidal effect by soil treatment (Table 19, symbol N); format: in vivo, redroot pigweed (Amaranthus retroflexus); details: amount of applied herbicide 320 g/ha
Procedure, shortened: as §3

SMILES | Herbicidal effect on A: late watergrass (grade 0-5) (late watergrass) | herbicidal effect on D (Chinese sprangletop), rating 0-5 (Chinese sprangletop) | herbicidal effect rating, P: chickweed (chickweed [1]) | herbicidal effect grade, F: southern crabgrass (southern crabgrass [2]) | herbicidal effect rating, F: southern crabgrass (southern crabgrass [3]) | herbicidal effect grade, L: windgrass (windgrass [4]) | Herbicidal effect on B: Japanese bulrush (grade 0-5) (Japanese bulrush) | herbicidal effect rating, Q: false cleavers (false cleavers [5]) | herbicidal effect grade, K: Italian ryegrass (Italian ryegrass [6]) | herbicidal effect grade, R: persian speedwell (persian speedwell [7]) | herbicidal effect grade, Q: false cleavers (false cleavers [8]) | herbicidal effect grade, O: lambsquarters (lambsquarters [9]) | herbicidal effect on H (barnyard grass), rating 0-5 (barnyard grass [10]) | herbicidal effect grade, M: velvetleaf (velvetleaf [11]) | herbicidal effect rating, M: velvetleaf (velvetleaf [12]) | herbicidal effect rating, R: persian speedwell (persian speedwell [13]) | herbicidal effect rating, H: barnyard grass (barnyard grass [14]) | herbicidal effect rating, J: blackgrass (blackgrass [15]) | herbicidal effect rating, G: green foxtail (green foxtail [16]) | herbicidal effect rating, O: lambsquarters (lambsquarters [17]) | also measured
CCCCc1ccc(-c2sc3ccccc3c2-c2c(O)c(C)nn(C)c2=O)cc1 [1-005] | 2 (Herbicidal rate of 20% or more and less than 40%) | 0 (Herbicidal rate of 5% or less (almost no effect)) | 0 (Herbicidal rate of 5% or less (almost no effect)) | 0 (Herbicidal rate of 5% or less (almost no effect)) | 0 (Herbicidal rate of 5% or less (almost no effect)) | 0 (Herbicidal rate of 5% or less (almost no effect)) | 0 (Herbicidal rate of 5% or less (almost no effect)) | 0 (Herbicidal rate of 5% or less (almost no effect)) | 0 (Herbicidal rate of 5% or less (almost no effect)) | 5 (Herbicidal rate of 90% or more (almost completely withered)) | 0 (Herbicidal rate of 5% or less (almost no effect)) | 5 (Herbicidal rate of 90% or more (almost completely withered)) | 4 (Herbicidal rate of 70% or more and less than 90%) | 3 (Herbicidal rate of 40% or more and less than 70%) | 0 (Herbicidal rate of 5% or less (almost no effect)) | 4 (Herbicidal rate of 70% or more and less than 90%) | 0 (Herbicidal rate of 5% or less (almost no effect)) | 0 (Herbicidal rate of 5% or less (almost no effect)) | 0 (Herbicidal rate of 5% or less (almost no effect)) | 0 (Herbicidal rate of 5% or less (almost no effect)) | herbicidal effect grade, N: redroot pigweed (redroot pigweed [18]): 4 (Herbicidal rate of 70% or more and less than 90%); herbicidal effect rating, K: Italian ryegrass (Italian ryegrass [19]): 0 (Herbicidal rate of 5% or less (almost no effect)); herbicidal effect rating, L: windgrass (windgrass [20]): 0 (Herbicidal rate of 5% or less (almost no effect)); herbicidal effect grade, P: chickweed (chickweed [21]): 5 (Herbicidal rate of 90% or more (almost completely withered)); herbicidal effect grade, G: green foxtail (green foxtail [22]): 0 (Herbicidal rate of 5% or less (almost no effect)); herbicidal effect grade, H: barnyard grass (barnyard grass [23]): 0 (Herbicidal rate of 5% or less (almost no effect)); herbicidal effect grade, J: blackgrass (blackgrass [24]): 0 (Herbicidal rate of 5% or less (almost no effect)); herbicidal effect on E (rice flat sedge), rating 0-5 (rice flat sedge): 5 (Herbicidal rate of 90% or more (almost completely withered)); herbicidal effect rating, I: wild oat (wild oat [25]): 0 (Herbicidal rate of 5% or less (almost no effect)); herbicidal effect grade, I: wild oat (wild oat [26]): 0 (Herbicidal rate of 5% or less (almost no effect)); Herbicidal effect on C: oval-leafed pondweed (grade 0-5) (oval-leafed pondweed): 0 (Herbicidal rate of 5% or less (almost no effect)); herbicidal effect rating, N: redroot pigweed (redroot pigweed [27]): 0 (Herbicidal rate of 5% or less (almost no effect))
CCCCc1ccc(-c2sc3ccccc3c2-c2c(OC(=O)CCC)c(C)nn(C)c2=O)cc1 [1-006] | 3 (Herbicidal rate of 40% or more and less than 70%) | 0 (Herbicidal rate of 5% or less (almost no effect)) | 0 (Herbicidal rate of 5% or less (almost no effect)) | 0 (Herbicidal rate of 5% or less (almost no effect)) | 0 (Herbicidal rate of 5% or less (almost no effect)) | 0 (Herbicidal rate of 5% or less (almost no effect)) | 1 (Herbicidal rate of 5% or more and less than 20%) | 0 (Herbicidal rate of 5% or less (almost no effect)) | 0 (Herbicidal rate of 5% or less (almost no effect)) | 5 (Herbicidal rate of 90% or more (almost completely withered)) | 0 (Herbicidal rate of 5% or less (almost no effect)) | 4 (Herbicidal rate of 70% or more and less than 90%) | 3 (Herbicidal rate of 40% or more and less than 70%) | 4 (Herbicidal rate of 70% or more and less than 90%) | 0 (Herbicidal rate of 5% or less (almost no effect)) | 3 (Herbicidal rate of 40% or more and less than 70%) | 0 (Herbicidal rate of 5% or less (almost no effect)) | 0 (Herbicidal rate of 5% or less (almost no effect)) | 0 (Herbicidal rate of 5% or less (almost no effect)) | 4 (Herbicidal rate of 70% or more and less than 90%) | herbicidal effect grade, N: redroot pigweed (redroot pigweed [18]): 5 (Herbicidal rate of 90% or more (almost completely withered)); herbicidal effect rating, K: Italian ryegrass (Italian ryegrass [19]): 0 (Herbicidal rate of 5% or less (almost no effect)); herbicidal effect rating, L: windgrass (windgrass [20]): 0 (Herbicidal rate of 5% or less (almost no effect)); herbicidal effect grade, P: chickweed (chickweed [21]): 5 (Herbicidal rate of 90% or more (almost completely withered)); herbicidal effect grade, G: green foxtail (green foxtail [22]): 0 (Herbicidal rate of 5% or less (almost no effect)); herbicidal effect grade, H: barnyard grass (barnyard grass [23]): 0 (Herbicidal rate of 5% or less (almost no effect)); herbicidal effect grade, J: blackgrass (blackgrass [24]): 0 (Herbicidal rate of 5% or less (almost no effect)); herbicidal effect on E (rice flat sedge), rating 0-5 (rice flat sedge): 5 (Herbicidal rate of 90% or more (almost completely withered)); herbicidal effect rating, I: wild oat (wild oat [25]): 0 (Herbicidal rate of 5% or less (almost no effect)); herbicidal effect grade, I: wild oat (wild oat [26]): 0 (Herbicidal rate of 5% or less (almost no effect)); Herbicidal effect on C: oval-leafed pondweed (grade 0-5) (oval-leafed pondweed): 0 (Herbicidal rate of 5% or less (almost no effect)); herbicidal effect rating, N: redroot pigweed (redroot pigweed [27]): 0 (Herbicidal rate of 5% or less (almost no effect))
